Measured values from patent US9290528B1, “Light-activated compounds” (University of Kentucky Research Foundation, priority 2013, dated 2016).
Where “and” joins values, the source holds several entries; their conditions need not be identical. Equal values may be shown once. Read-outs that look alike come from different tables or passages of the source. Values belong to the compound of their own block, whether it stands above or below them.

Experiments:
pUC19 plasmid [1] = test: Glutathione assay: pUC19 crosslinking with increasing GSH; type: biochemical; settings: 30 μM compound, 0.01-40 mM GSH; 4 light-activated
Protocol: The concentrations of GSH were 0.01, 0.1, 1, 10, 40 mM, giving a molar ratio between the compounds and glutathione of a) 1:0.3, b) 1:3.3, c) 1:33, d) 1:333, e) 1:1333. […] Control reactions with pUC19 in the presence and absence of GSH were carried out for 12 hrs in the dark with 25 μg/ml plasmid and 40 mM GSH in 10 mM phosphate buffer, pH 7.5. The plasmid was resolved on a 1% agarose gel as described above.
(§1) The photoactivated DNA crosslinking Ru(bpy)2 species retained its ability to damage DNA, even at higher GSH concentrations.

[2] = Interaction of prodrug compounds with GSH by UV/Vis spectroscopy; type: physicochemical; settings: period of days
Excerpt: as §1

[3] = tested on: HL60 promyelocytic leukemia cell line; test: Cell survival assay, HL60; type: cell-based
Protocol: (§2) The HL60 promyelocytic leukemia cell line was obtained from ATCC and cultured in IMDM media (Invitrogen; Carlsbad, Calif.) supplemented with 10% serum supreme (Lonza; Basel, Switzerland) and penicillin/streptomycin at 37° C. with 5% CO2. The A549 cell line was donated and cultured in DMEM supplemented with glutamax, 10% serum supreme, and penicillin/streptomycin at 37° C. with 5% CO2. Cells were plated in Optimem (Life Technologies; Carlsbad, Calif.) supplemented with 1% serum supreme and penicillin/streptomycin at 30,000 cells per well in Costar 96 well flat bottom clear tissue culture treated plates for HL60 and 1500 cells/well for A549. […] The cells were then incubated for 72 hours followed by the addition of Cell Titer Glo (Promega; Madison, Wis.) to determine viability. Dark controls were run in parallel. The resulting luminescence was measured using the SpectraFluor Plus Plate Reader (Tecan). Data were fit to an equation for a sigmoidal dose response using the equation below, where yi and yf are the initial and final signal intensities.
(§3) Cell cytotoxicity studies were performed in HL60 leukemia cells and A549 lung cancer cells (see FIG. 7 and Table 3). Cells were incubated with compounds for 12 hours in the dark before irradiated with >450 nm light (410 W) for 3 minutes. Dark controls were run in parallel. Cell survival was quantified 72 hours later through the use of an ATP luciferase assay, and confirmed by Trypan Blue staining and manual counting.

A549 lung cancer cells = test: Cell survival assay, A549 monolayer; type: cell-based
Protocol: as §2, §3

A549 tumor spheroids = test: A549 tumor spheroid cytotoxicity; type: cell-based
Protocol: A549 cells were seeded at 2,500 cells/well in 1.5% agarose coated 96-well plates. After 7 days the spheroids were dosed with compounds and incubated for 12 hrs. […] Cellular viability was determined 72 hours after light activation for the irradiated samples and at the same time point for the dark samples by measuring ATP concentration with CellTiter Glo (Promega). Data were fit to an equation for sigmoidal dose response shown above using the Prism software package.
3D tumor spheroids were used to test the compounds. Spheroids provide a system that approximates the complexity of in vivo tumors. These spheroids mimic the pathophysiology of tumors, including hypoxic/necrotic regions, changes in cell shape, high proportions of quiescent cells, alterations in gene expression profiles, and diminished permeability to drugs. […] To characterize the light-activated ruthenium compounds under more challenging and biologically relevant conditions, efficacy was assessed in a 3D tumor model by forming tumor spheroids with A549 cells.
Spheroids of about 600 μm in diameter were dosed with compounds and then either kept in the dark or irradiated with >450 nm light for 3 minutes.

A549 cells [4] = test: Glutathione assay in A549 cells (cytoprotection); type: cell-based; settings: co-dosed with increasing GSH
[5] = tested on: HL60 leukemia cells and A549 lung cancer cells; test: Cell cytotoxicity studies, summary over HL60 and A549; type: cell-based
Protocol: as §2, §3

[6] = Light and dark cytotoxicity of exemplary compounds (Table 6); type: cell-based; settings: for IC50: cell line not stated; for Phototoxicity Index: dark IC50/light IC50
Excerpt: This Example describes additional specific embodiments the presently-disclosed subject matter. […] The methods for making and characterizing the compounds are based on the methodologies described in the previous examples.

pUC19 plasmid [7] = test: Plasmid-compound gel analysis (Example 2); settings: visible light 200 W, 1 hour
[8] = Photoejection followed by UV/Vis absorption spectroscopy (Example 2); settings: >450 nm light
Log P = type: physicochemical
pUC19 plasmid DNA = pUC19 plasmid DNA damage by gel electrophoresis (Example 4); type: biochemical; settings: for DNA damage when exposed to light: 40 J/cm^2 >400 nm light
Protocol: Their DNA damaging properties were assessed with pUC19 plasmid DNA using gel electrophoresis. […] Samples were then incubated for 24 hours at room temperature protected from light. Controls were prepared to simulate single and double strand DNA breaks, and the DNA samples resolved on agarose gels. Samples were resolved using 1% agarose gels prepared in tris-acetate (TA) buffer. Each lane was loaded with 0.3 μg of pUC19 and the samples run for 90 minutes at […]. The gels were stained with 500 ng/mL ethidium bromide in TA buffer at room temperature for 40 minutes. […] In contrast, 10 is a more hydrophilic molecule, and the negatively charged sulfonate functional groups were anticipated to cause electrostatic repulsions between the complex and the negatively charged backbone of the DNA. DNA precipitation or smearing was not observed with up to 500 μM of […] (FIG. 12B).

HL60 cells [9] = test: Cell viability as a function of time; type: cell-based, human; settings: irradiated; for cell viability: 2 hours
HL60 cells [10] = test: Mitochondrial membrane potential (TMRE); type: cell-based, human; settings: for effect on mitochondrial potential: dark and irradiated
Excerpt: FIGS. 14A to 14D includes charts showing mitochondrial potential and cell viability of HL60 cells as a function of time for (FIG. 14A) 9, dark, (FIG. 14B) 9, irradiated; (FIG. 14C) 10, dark; (FIG. 14D) 10, irradiated. TMRE was used to quantify membrane potential; values are relative to a no-compound control value of 100.
TMRE is a cationic dye that accumulates in active motochondria as a result of the negative membrane potential (Δψm).

A549 cells [11] = test: Uptake and subcellular localization by Apoptome microscopy; type: cell-based, human
Protocol: The emission of 9 and 10 was measured in A549 cells using an Apoptome microscope. The relative rates of uptake of each of the complexes were analyzed as a function of time, and both 9 and 10 were visible inside cells as early as 2 hours after compound addition, consistent with the flow data and the ICP-OES results. Images were taken at 2, 8, 18 and 24 hours, and intracellular levels of both complexes appeared to plateau around 8 hours.
Differences in the intracellular localization of 9 and 10 were evaluated by determining colocalization of luminescence of the compound and fluorescent markers of organelles in A549 cells. Overlap in signals between the compounds, cellular nucleus, mitochondria and lysosome was measured over a 24 hour period.

HL60 cells [12] = test: Western blot of PARP and caspase 3 cleavage; type: cell-based, human; settings: for 55 kDa PARP fragment (marker for necrosis): protected from light and irradiated
Protocol: Given the different cellular localization properties and time profiles for cell death induced by 9 and 10, the mechanism of cell death was investigated. Indicators of apoptotic cell death (activation of PARP and caspase 3 through proteolysis) were determined in HL60 cells treated with either 9 or 10 (FIGS. 15A and 15B).
The generation of an alternate 55 kDa PARP fragment was determined by immunoblot as a marker for necrosis with 10% (v/v) ethanol used as a control that induces necrosis.

HL60 cells [13] = test: Genomic DNA laddering by gel electrophoresis; type: cell-based, human; settings: dark / not irradiated
Excerpt: To further analyze the mechanisms of cell death induced by 9 and 10, the degradation pattern of genomic DNA was investigated. DNA laddering was observed as a result of DNA fragmentation stemming from the execution phase of apoptosis. In contrast, necrotic cell death lacked this characteristic laddering effect, allowing differentiation between these two mechanisms. […] This laddering was absent in the cells treated with ethanol and compounds 9 and 10 in the dark. […] In contrast, given the cytotoxicity of 9 in the dark and the presence of the 55 kDa PARP fragment, it appears that necrotic cell death is one pathway for […]. For compound 10 the absence of DNA laddering may be a result of the lack of cytotoxicity of the negatively charged compound.

HL60 cells [14] = tested on: HL60 cells
HL60 cells [15] = tested on: HL60 cells; remark: listed apart in the source
[16] = Photoejection half-life of 8 in solvents; type: physicochemical; settings: D2O vs H2O
Excerpt: The photochemical behaviour of 8 paralleled the photophysical characteristics of unstrained Ru^II complexes containing the dppz ligand.

calf thymus (CT) DNA = type: physicochemical; settings: bovine
15 mer oligonucleotide A = type: physicochemical
Excerpt: (§4) The G-quadruplex sequence is [NT].

[17] = tested on: G-quadruplex [AGGG(TTAGGG)3]; type: physicochemical
Excerpt: as §4

CT DNA = test: DNA binding affinity (Kb) with CT DNA; design: species or system calf; settings: racemic mixtures
Excerpt: Intercalation of both complexes was consistent with the reduced mobility of supercoiled plasmid DNA in agarose gels, and the modulation of the absorption spectra in the presence of DNA, characterized by hypochromism of both the π-π* of the dppz ligand and the MLCT transitions, with maximal effect at a ratio of 2:1 DNA base pairs to metal center. Thus, the strained complex retained DNA-sensing capabilities of other Ru^II “light-switch” molecules and photochemical reactivity.

Compound: Cc1cccc(-c2cccc(C)n2)n1.F[P-](F)(F)(F)(F)F.F[P-](F)(F)(F)(F)F.[Ru+2].c1ccc(-c2ccccn2)nc1.c1ccc(-c2ccccn2)nc1 [Compound 4, Ru(bpy)2-6,6′dmbpy]
plasmid DNA crosslinking in presence of increasing GSH (pUC19 plasmid [1]): greater DNA binding than cisplatin
interaction with GSH [2]: did not interact with GSH
IC50 ([3]; 3 min >450 nm light, 72 hours, read-out: Light IC50 HL60): 1.6 µM
IC50 ([3]; dark, read-out: Dark IC50 HL60): > 300 µM
Phototoxicity Index, PI HL60 ([3]; ratio of dark and light IC50): >188
IC50 (A549 lung cancer cells; 3 min >450 nm light, 72 hours, read-out: Light IC50 A549): 1.1 µM
IC50 (A549 lung cancer cells; dark, read-out: Dark IC50 A549): 150 µM
Phototoxicity Index, PI A549 (A549 lung cancer cells; ratio of dark and light IC50): 136
IC50 (A549 tumor spheroids; 3 min >450 nm light, 72 hours, read-out: Light IC50 A549 spheroid): 21 µM and 21.3 µM
IC50 (A549 tumor spheroids; dark, read-out: Dark IC50 A549 spheroid): > 300 µM
MCR Index (A549 tumor spheroids; ratio of spheroid and monolayer culture IC50): 19.4
effect of GSH on cytotoxicity (A549 cells [4]): not
activity light versus dark ([5]; >450 nm light 3 minutes vs dark): light-triggered toxicity
IC50 values after irradiation ([5]; after irradiation): single μM IC50 values
dark toxicity (none observed up to this concentration) ([5]; dark): > 300 µM
IC50 ([6]; read-out: Dark IC50): 300 µM
IC50 ([6]; read-out: Light IC50): 1.5 µM
Phototoxicity Index [6]: 200
type of DNA damage upon visible light (pUC19 plasmid [7]): DNA photobinding
reaction kinetics of 4 relative to 5 [8]: 30 fold

Compound: O=S(=O)([O-])c1ccc(-c2ccnc3c2ccc2c(-c4ccc(S(=O)(=O)[O-])cc4)ccnc23)cc1.O=S(=O)([O-])c1ccc(-c2ccnc3c2ccc2c(-c4ccc(S(=O)(=O)[O-])cc4)ccnc23)cc1.O=S(=O)([O-])c1ccc(-c2ccnc3c2ccc2c(-c4ccc(S(=O)(=O)[O-])cc4)ccnc23)cc1.[Ru+2] [Compound 10, Ru(bathophenanthorlinedisulfonate)3]
Log P (Log P): −2.2 ± 0.12
DNA damage when exposed to light (pUC19 plasmid DNA): induced single strand DNA breaks
cell viability (HL60 cells [9]): 70±12%
viable cells remaining (HL60 cells [9]; 24 hours): 70% and 59±4%
viable cells remaining (HL60 cells [9]; 48 hours): 55%
effect on mitochondrial potential (HL60 cells [10]): did not significantly reduce the mitochondrial potential
time at which intracellular levels plateau (A549 cells [11]): around 8 hours
PARP and caspase 3 activation (HL60 cells [12]; absence of light): did not display PARP or caspase 3 cleavage
PARP and caspase 3 activation (HL60 cells [12]; irradiated): induced PARP as early as 2 hours
55 kDa PARP fragment (marker for necrosis) (HL60 cells [12]): lower level of the 55 kDa PARP fragment
genomic DNA laddering (HL60 cells [13]): absent
increase of average emission of cells between 2 and 24 hours (HL60 cells [14]): 4 fold
amount within the cells after irradiation (HL60 cells [15]): 1.6%

Log P (Log P): 1.8 ± 0.02
Compound: Ru(bathophenanthroline)3 [Compound 9]
DNA damage when exposed to light (pUC19 plasmid DNA): induced single strand DNA breaks
concentrations at which precipitation of the complex with the DNA was observed (pUC19 plasmid DNA; light and dark): above 31.3 μM
time to cell death after irradiation (HL60 cells [9]): ≤ 2 h
cell viability (HL60 cells [9]): about 0%
effect on mitochondrial potential (HL60 cells [10]): rapid and complete depolarization of mitochondria
mitochondrial function (HL60 cells [10]; dark, 2 hours post treatment): completely impaired
mitochondrial function (HL60 cells [10]; within 2 hours of irradiation): about 0%
time at which intracellular levels plateau (A549 cells [11]): around 8 hours
PARP and caspase 3 activation (HL60 cells [12]; absence of light): after 18 and 24 hours and to a lesser degree
PARP and caspase 3 activation (HL60 cells [12]; irradiated): induced the proteolytic activation of both PARP and caspase 3 within 2 hours of irradiation
55 kDa PARP fragment (marker for necrosis) (HL60 cells [12]): produced this fragment at significant levels
genomic DNA laddering (HL60 cells [13]): absent

Half-life (calf thymus (CT) DNA): 41 ± 2 min
t1/2 values (calf thymus (CT) DNA): 31 to 41 min
Half-life (15 mer oligonucleotide A): 31 ± 0.5 min
Half-life [17]: 13.5 min
Kb (CT DNA): 3e+07 M⁻¹
Compound: Ru(bpy)2dmdppz [Compound 8]
isotope effect of ejection [16]: > 3.4
increase of photoejection rate compared to CT DNA ([17]; bound to G-quadruplex): 3 fold
IC50 ([6]; read-out: Dark IC50): 65 µM
IC50 ([6]; read-out: Light IC50): 14 µM
Phototoxicity Index [6]: 4.6
